According to patent publication US20230357179A1, “RAF KINASE INHIBITORS AND METHODS OF USE THEREOF” (Deciphera Pharmaceuticals, LLC, priority 2021, published 2023):

Key:
C-Raf kinase = biological target: T1, C-Raf kinase (Homo sapiens, UniProt P04049, Y340D/Y341D); test: Biochemical assay for C-Raf.1 (coupled pyruvate kinase/lactate dehydrogenase); conditions: read-out: CRAF.1 IC50
T1 construct: Y340D,; GST (N); purchased Sigma
Procedure, shortened: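 C-Raf (0.43 nM) with MEK 30.1 nM and 1 mM ATP in Tris pH 7.5/MgCl2 buffer, activity coupled via PK/LDH to NADH oxidation (A340), 6 h at 30° C. Rates from 4–5 h window converted to % inhibition versus controls; IC50 by four-parameter fit, 1% DMSO.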

H2405 cells = test: H2405 cell proliferation assay (1), resazurin, 96-well; type: cell-based; conditions: Homo sapiens, NCI-H2405, inhibition of cell proliferation
Procedure, shortened: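 This is a resazurin viability readout (excitation 540 nm, emission 600 nm) taken 5-6 h after adding 440 μM resazurin solution, giving IC50 values.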

B-Raf (V600E) kinase = biological target: T2, B-Raf (V600E) kinase (Homo sapiens, UniProt P15056, V600E); test: Biochemical assay for B-Raf (V600E).1 (coupled pyruvate kinase/lactate dehydrogenase); conditions: read-out: BRAF V600E.1 IC50
T2 construct: B-Raf (V600E) residues 416-766 with a; GST (N); purchased SignalChem
T2 sequence (P15056 416-766 V600E): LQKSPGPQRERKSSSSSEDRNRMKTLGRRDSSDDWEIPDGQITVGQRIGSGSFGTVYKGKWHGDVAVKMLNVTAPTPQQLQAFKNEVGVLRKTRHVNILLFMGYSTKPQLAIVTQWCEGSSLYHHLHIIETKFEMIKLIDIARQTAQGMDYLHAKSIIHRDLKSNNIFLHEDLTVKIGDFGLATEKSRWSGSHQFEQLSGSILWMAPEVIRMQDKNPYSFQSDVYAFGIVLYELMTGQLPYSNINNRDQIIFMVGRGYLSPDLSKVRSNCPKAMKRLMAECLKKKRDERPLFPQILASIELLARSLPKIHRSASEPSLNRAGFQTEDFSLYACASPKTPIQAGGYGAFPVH
Procedure, shortened: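 0.03 nM B-Raf(V600E) phosphorylating 30.1 nM MEK at 1 mM ATP, pH 7.5, coupled to PK/LDH, with NADH oxidation followed at 340 nm for 6 h at 30 °C. Rates taken from the 3-4 h window. IC50 from a four-parameter fit of percent inhibition.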

T1 sequence (P04049 307-648 Y340D/Y341D): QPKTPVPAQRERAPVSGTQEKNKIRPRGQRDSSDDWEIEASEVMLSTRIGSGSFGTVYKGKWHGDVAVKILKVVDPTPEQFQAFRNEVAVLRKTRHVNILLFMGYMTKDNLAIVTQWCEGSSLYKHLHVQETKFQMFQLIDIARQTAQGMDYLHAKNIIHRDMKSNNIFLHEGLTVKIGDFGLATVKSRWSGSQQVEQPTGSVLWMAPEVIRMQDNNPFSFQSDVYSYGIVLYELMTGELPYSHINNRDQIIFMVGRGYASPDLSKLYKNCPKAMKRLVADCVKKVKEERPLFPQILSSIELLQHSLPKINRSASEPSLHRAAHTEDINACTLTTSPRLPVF

Row | IC50 (C-Raf kinase) | IC50 (H2405 cells) | IC50 (B-Raf (V600E) kinase) | Structure (SMILES)
1 | ≤ 0.1 µM | 0.1 to 0.5 µM | ≤ 0.1 µM | COC(C)(C)CCNC(=O)Nc1cc(-c2cnnc(-c3ccnc(NC(=O)C4CC4)c3)c2)c(C)cc1F [Example 173]
2 | ≤ 0.1 µM | 0.5 to 1 µM | ≤ 0.1 µM | COC(=O)Nc1cc(-c2nc(OCCO)cc(-c3cc(NC(=O)NC4CC(C)(C)C4)cnc3C)n2)ccn1 [Example 174]
3 | ≤ 0.1 µM | ≤ 0.1 µM | ≤ 0.1 µM | CC(=O)Nc1cc(-c2cc(-c3cc(NC(=O)NCCC4(C)CC4)c(F)cc3C)cc(NCCO)n2)ccn1 [Example 175]
4 | 0.1 to 0.5 µM | 1 to 10 µM | ≤ 0.1 µM | COC[C@H]1CCN(C(=O)Nc2cnc(C)c(-c3ccnc(-c4ccnc(NC(=O)OC)c4)c3)c2)C1 [Example 176]
5 | > 1 µM | 1 to 10 µM | 0.1 to 0.5 µM | CNC(=O)c1cc(-c2cnnc(-c3cc(NC(=O)N4CC[C@H](OC)C4)ccc3C)c2)ccn1 [Example 177]
6 | 0.5 to 1 µM | 1 to 10 µM | ≤ 0.1 µM | CNC(=O)c1cc(-c2cnnc(-c3cc(NC(=O)N4CCC5(CC5)C4)ccc3C)c2)ccn1 [Example 178]
7 | 0.1 to 0.5 µM | 1 to 10 µM | ≤ 0.1 µM | COC[C@@H]1CCN(C(=O)Nc2cnc(C)c(-c3ccnc(-c4ccnc(NC(=O)OC)c4)c3)c2)C1 [Example 179]
8 | 0.1 to 0.5 µM | 1 to 10 µM | ≤ 0.1 µM | CNC(=O)c1cc(-c2cnnc(-c3cc(NC(=O)N4CCC(C(C)(C)C)C4)ccc3C)c2)ccn1 (stereo not shown) [Example 180]
9 | > 1 µM | 1 to 10 µM | 0.1 to 0.5 µM | CNC(=O)c1cc(-c2cnnc(-c3cc(NC(=O)N4CC[C@@H](OC)C4)ccc3C)c2)ccn1 [Example 181]
10 | 0.1 to 0.5 µM | 1 to 10 µM | ≤ 0.1 µM | CNC(=O)c1cc(-c2cnnc(-c3cc(NC(=O)N4CC[C@@H](OC(F)(F)F)C4)ccc3C)c2)ccn1 [Example 182]
11 | 0.5 to 1 µM | 1 to 10 µM | ≤ 0.1 µM | CNC(=O)c1cc(-c2cnnc(-c3cc(NC(=O)N4CCC(C(C)(C)C)C4)cnc3C)c2)ccn1 (stereo not shown) [Example 184]
12 | ≤ 0.1 µM | 0.1 to 0.5 µM | ≤ 0.1 µM | COC(=O)Nc1cc(-c2cnnc(-c3cc(NC(=O)N4CCC(C(C)(C)C)C4)ccc3C)c2)ccn1 (stereo not shown) [Example 185]
13 | ≤ 0.1 µM | 0.1 to 0.5 µM | ≤ 0.1 µM | COC(=O)Nc1cc(-c2cnnc(-c3cc(NC(=O)N4CCC(CC(F)(F)F)C4)ccc3C)c2)ccn1 (stereo not shown) [Example 186]
14 | ≤ 0.1 µM | 1 to 10 µM | 0.1 to 0.5 µM | COC(=O)Nc1cc(-c2cc(-c3cc(NC(=O)NCCC4(C)CC4)ccc3F)cc(OCCO)n2)ccn1 [Example 187]
15 | ≤ 0.1 µM | 0.5 to 1 µM | ≤ 0.1 µM | COC(=O)Nc1cc(-c2cc(-c3cc(NC(=O)NCCC4(C)CC4)c(F)cc3F)cc(OCCO)n2)ccn1 [Example 188]
16 | ≤ 0.1 µM | 1 to 10 µM | 0.1 to 0.5 µM | COC(=O)Nc1cc(-c2nccc(-c3cc(NC(=O)N4CCC(C(F)(F)F)C4)ccc3C)n2)ccn1 (stereo not shown) [Example 193]
17 | ≤ 0.1 µM | 0.1 to 0.5 µM | ≤ 0.1 µM | Cc1ccc(NC(=O)N2CCC(CC(F)(F)F)C2)cc1-c1cncc(-c2cc(NC(=O)C3CC3)ncn2)c1 (stereo not shown) [Example 194]
18 | ≤ 0.1 µM | 0.5 to 1 µM | ≤ 0.1 µM | Cc1ccc(NC(=O)N2CC[C@@H](C(F)(F)F)C2)cc1-c1cncc(-c2ccnc(NC(=O)C3CC3)c2)c1 [Example 196]
19 | ≤ 0.1 µM | 0.1 to 0.5 µM | ≤ 0.1 µM | Cc1ccc(NC(=O)N2CC[C@H](C(F)(F)F)C2)cc1-c1cncc(-c2ccnc(NC(=O)C3CC3)c2)c1 [Example 197]
20 | 0.1 to 0.5 µM | – | > 1 µM | COC(=O)Nc1cc(-c2cnnc(-c3cc(NC(=O)N4CCC(C(C)(C)O)C4)ccc3C)c2)ccn1 (stereo not shown) [Example 206]
21 | ≤ 0.1 µM | – | 0.5 to 1 µM | Cc1ccc(NC(=O)N2CCC(CC(F)(F)F)C2)cc1-c1cncc(-c2cc(N)ncn2)c1 (stereo not shown) [Example 207]
